Consider 6 compounds from patent publication US5721366A, “Platelet aggregation inhibitors” (G. D. Searle & Co, priority 1995, dated 1998).

For orientation: pIC50 means the negative decadic logarithm of the IC50, by convention in mol/L. By inhibition is commonly meant the relative decrease from the control value, in per cent. The low end stands for a response near the control, the high end for a response far below the control.

In experiment [1] the test system is Human platelet aggregation (platelet-rich plasma). Nature of the experiment: Inhibition of Human Platelet Aggregation (PRP), collagen-induced. It counts as cell-based. The settings on record: collagen-induced aggregation (4 μg/ml final), 37° C. Here is the method: Inhibition of Human Platelet Aggregation (PRP)
Platelet rich plasma was prepared from citrated whole blood (3.8% Na citrate, 1:10 in 30 ml blood) withdrawn from the antecubital vein (n=1). PRP was prepared by centrifugation (Sorvall RC3C, DuPont, Wilmington, Del.) of the whole blood at 1000×g for 3 min, allowing the centrifuge to stop without braking. Platelet poor plasma (PPP) was prepared by centrifugation of PRP at 2000×g for 10 min. […] Aggregation was measured in a 4 channel aggregometer (model PAP-4C, Bio/Data Corp., Hatboro, Pa.). Aliquots of PPP were used to standardize the aggregometer for measurement of maximum light transmission. Platelet aggregation was measured as an increase in light transmission.
PRP (430 μl aliquot) was preincubated with 50 μl of various concentrations of compound (dissolved in 10% ETOH/water at a concentration of 10^-3 M. Compounds were diluted to desired concentration with 0.9% NaCl) for 2 min at 37° C., with stirring at 900 rpm, in the aggregometer. The stock collagen (Chronolog, Havertown, Pa., equine tendon) was diluted 1:10 with a 5% dextrose and water solution. The vehicle control response was obtained by adding 20 μl diluted collagen to the untreated aliquot of PRP+50 μl saline. Final collagen concentration was 4 μg/ml. Aggregation was recorded for 3 min following the addition of collagen. […] Percent inhibition was calculated by comparing treated and control samples. IC50 's were calculated graphically from dose-response curves. Average values and standard errors were calculated using the IC50 's of the individual experiments. Statistical analyses were done by an unequal variance, unpaired Student's t-test [Minitab Reference Manual, Minitab Inc., State College, Pa. (1988)]. Statistical significance was assumed when p<0.05 was found.
(§1) (NT in the following table indicates not tested.)

Experiment [2] relates to Dog platelet aggregation (platelet-rich plasma). In words: In-Vitro Platelet Aggregation in PRP (Dog), collagen-induced. It counts as cell-based. The settings on record: for pIC50: collagen-induced aggregation (33 μg/ml final), 37° C. The procedure: In-Vitro Platelet Aggregation in PRP--(Dog)
Healthy male or female dogs were fasted for 8 hours prior to drawing blood; then 60 ml whole blood was collected using a butterfly needle and 30 cc plastic syringe with 6 ml of 0.129M buffered sodium citrate (3.8%) (drawn from a minimum of 3 dogs and blood was pooled). The syringe was rotated carefully as blood was drawn to mix the citrate. Platelet-rich plasma (PRP) was prepared by centrifugation at 975×g for 3.17 minutes at room temperature, allowing the centrifuge to coast to a stop without braking. The PRP was removed from the blood with a plastic pipette and placed in a plastic capped 50 ml Corning conical sterile centrifuge tube which was held at room temperature. Platelet poor plasma (PPP) was prepared by centrifuging the remaining blood at 2000×g for 15 minutes at room temperature allowing the centrifuge to coast to a stop without braking. The platelet count in the PRP was routinely 2-4×10^8 platelets per ml. 400 μl of the PRP preparation and 50 μl of the compound to be tested or saline were preincubated for 2 minutes at 37° C. in a BioData aggregometer (BioData, Horsham, Pa.). 50 μl of collagen (diluted 1:3 with 5% dextrose and water solution, 33 μg/ml final concentration, equine tendon, Chronolog, Havertown, Pa.) was added to the cuvettes and the aggregation was monitored for 3 minutes. All compounds are tested in duplicate.
Results are calculated as follows:
Percent of control=[(maximal OD minus initial OD of compound) divided by (maximal OD minus initial OD of control saline)]×100. The % inhibition=100-(percent of control).
as §1

Where [3] appears, read: Canis lupus familiaris, Platelet.

pIC50: −log10 of the molar value. Counter-ions that a name gives are not always drawn.

In experiment [1] (Homo sapiens, Platelet), `N=C(N)c1ccc(N2CCC(NC(=O)NCCC(=O)O)C2=O)cc1` (single isomer, unassigned; isomer a) [Example 41, 3-[[[[1-[4-(aminoiminomethyl)phenyl]-2-oxo-3-pyrrolidinyl]amino]carbonyl]amino]propanoic acid trifluoroacetate. Enantiomerically Enriched Isomer A.] showed a pIC50 of 6.82. Also, 1 µM produced 30% inhibition in experiment [2] (Canis lupus familiaris, @ 1 μM, collagen-induced aggregation).

`N=C(N)c1ccc(N2CCCC(CC(=O)NC(CC(=O)O)c3ccccc3)C2=O)cc1` (stereo not drawn) [Example 32, 3-[[[1-[4-(aminoiminomethyl)phenyl]-2-oxo-3-piperidinyl]acetyl]amino]-3-phenylpropanoic acid]: the negative-log IC50 (pIC50) in experiment [1] (Homo sapiens, Platelet) is 6.80; in experiment [2] (setting [3]) it was 6.60.

Take `N=C(N)c1ccc(N2CCC(CC(=O)NC[C@H](NC(=O)OCc3ccccc3)C(=O)O)C2=O)cc1` (stereo partly drawn) [Example 16, 3-[[[1-[4-(aminoiminomethyl)phenyl]-2-oxo-3-pyrrolidinyl]acetyl]amino]-N-[(phenylmethoxy)carbonyl]-L-alanine]: the pIC50 was 6.51 in experiment [1] (Homo sapiens, Platelet) and 7.00 in experiment [2] (setting [3]).

For the compound `C=C[C@H](CC(=O)O)NC(=O)CC1CCN(c2ccc(C(=N)N)cc2)C1=O` (single isomer, unassigned; isomer a) [Example 4, 3S-[[[1-[4-(aminoiminomethyl)phenyl]-2-oxo-3-pyrrolidinyl]acetyl]amino]-4-pentenoic acid, monohydrochloride, enantiomerically enriched isomer A.], the pIC50 in experiment [1] was 7.26; in experiment [2], 7.28.

In the case of `C=C[C@H](CC(=O)O)NC(=O)CC1CCN(c2ccc(C(=N)N)cc2)C1=O` (single isomer, unassigned; isomer b) [Example 6, 3S-[[[1-[4-(aminoiminomethyl)phenyl]-2-oxo-3-pyrrolidinyl]acetyl]amino]-4-pentenoic acid, enantiomerically enriched isomer B], the negative logarithm of the IC50 (pIC50) in experiment [1] is 6.07; in experiment [2] it was 5.80.

As to `N=C(N)c1ccc(N2CCC(CC(=O)NC(CC(=O)O)c3ccccc3)C2=O)cc1` (stereo not drawn) [Example 12, 3-[[[1-[4-(aminoiminomethyl)phenyl]-2-oxo-3-pyrrolidinyl]acetyl]amino]-3-phenylpropionic acid], the negative logarithm of the IC50 (pIC50) is 6.54 in experiment [1] (Homo sapiens, Platelet) and 6.41 in experiment [2] (setting [3]).
